Measured values published in patent publication US20060069132A1, “Azolecarboxamide herbicides” (priority 2004, published 2006).

How the values were obtained:
Experiment in all cases: Test C pre-/postemergence herbicide test
[1] = tested on: kochia; assay type: in vivo, Kochia scoparia; settings: preemergence
How it was run: (§1)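 Visual injury scores run from 0 (no effect) to 100 (complete control), assessed relative to untreated controls 12 to 14 days after treatment in the greenhouse. Chemicals were formulated in a non-phytotoxic solvent mixture with surfactant and applied to soil after planting or to emerged plants at the 1- to 4-leaf stage.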

[2] = tested on: large crabgrass; assay type: in vivo, Digitaria sanguinalis; settings: preemergence
How it was run: as §1

[3] = tested on: bermudagrass; assay type: in vivo, Cynodon dactylon; settings: for Plant response rating, Bermudagrass: preemergence
How it was run: as §1

[4] = tested on: cocklebur; assay type: in vivo, Xanthium strumarium; settings: for Plant response rating, Cocklebur: preemergence
How it was run: as §1

[5] = tested on: Surinam grass; assay type: in vivo, Urochloa decumbens; settings: preemergence
How it was run: as §1

[6] = tested on: goosegrass; assay type: in vivo, Eleusine indica; settings: preemergence
How it was run: as §1

[7] = tested on: corn; assay type: in vivo, Zea mays; settings: preemergence
How it was run: as §1

[8] = tested on: giant foxtail; assay type: in vivo, Setaria faberi; settings: preemergence
How it was run: as §1

[9] = tested on: common (oilseed) sunflower; assay type: in vivo, Helianthus annuus; settings: preemergence
How it was run: as §1

[10] = 125 g ai/ha, scale 0 (no effect) to 100 (complete control), visual, 12 to 14 days
[11] = 500 g ai/ha, scale 0 to 100 (0 no effect, 100 complete control), visual, 12 to 14 days
[12] = Preemergence, 500 g ai/ha, scale 0 to 100, 0 no effect, 100 complete control

Compound: CCN1N=C(C(C)(C)C)CC1C(=O)Nc1cc(C(=O)N2CCCC2)ccc1F (racemic) [Compound 309]
- Plant response rating, Kochia ([1]; 62 g ai/ha, scale 0 to 100): 100
- Plant response rating, Kochia [1, 10]: 100
- Plant response rating, Kochia ([1]; 250 g ai/ha, scale 0-100): 100
- Plant response rating, Kochia [1, 11]: 100
- Plant response rating, Crabgrass, Large [2, 10]: 80
- Plant response rating, Crabgrass, Large ([2]; 250 g ai/ha, scale 0-100): 100
- Plant response rating, Crabgrass, Large [2, 11]: 100
- Plant response rating, Bermudagrass ([3]; 62 g ai/ha, scale 0 to 100, 0 no effect, 100 complete control): 90
- Plant response rating, Bermudagrass [3, 10]: 90
- Plant response rating, Bermudagrass ([3]; 250 g ai/ha, scale 0-100): 95
- Bermudagrass plant response rating [3, 12]: 100
- Plant response rating, Cocklebur ([4]; 62 g ai/ha, scale 0 to 100): 0
- Plant response rating, Cocklebur [4, 10]: 10
- Plant response rating, Cocklebur ([4]; 250 g ai/ha, scale 0-100): 60
- Cocklebur plant response rating [4, 12]: 60
- Plant response rating, Surinam Grass ([5]; 62 g ai/ha, scale 0 to 100): 50
- Plant response rating, Surinam Grass ([5]; 250 g ai/ha, scale 0-100): 90
- Plant response rating, Surinam Grass [5, 11]: 100
- Plant response rating, Goosegrass ([6]; 62 g ai/ha, scale 0 to 100): 85
- Plant response rating, Goosegrass [6, 10]: 85
- Plant response rating, Goosegrass ([6]; 250 g ai/ha, scale 0-100): 100
- Plant response rating, Goosegrass [6, 11]: 100
- Plant response rating, Corn ([7]; 62 g ai/ha, scale 0 to 100): 5
- Plant response rating, Corn [7, 10]: 20
- Plant response rating, Corn ([7]; 250 g ai/ha, scale 0-100): 40
- Plant response rating, Corn [7, 11]: 60
- Plant response rating, Foxtail, Giant ([8]; 62 g ai/ha, scale 0 to 100): 70
- Plant response rating, Foxtail, Giant [8, 10]: 80
- Plant response rating, Foxtail, Giant ([8]; 250 g ai/ha, scale 0-100): 90
- Plant response rating, Foxtail, Giant [8, 11]: 100
- Plant response rating, Sunflower ([9]; 62 g ai/ha, scale 0 to 100): 0
- Plant response rating, Sunflower ([9]; 250 g ai/ha, scale 0-100): 5
- Plant response rating, Sunflower [9, 11]: 60
